Data: patent EP0631668B1, “DETERMINATION OF BINDING AFFINITY USING MAGNETICALLY-LABELED BINDING MEMBERS” (ABBOTT LABORATORIES, priority 1992, dated 1993)

Molecular target: T1, streptavidin-coated paramagnetic microparticle (Streptomyces avidinii, UniProt P22629)
T1 construct: purchased Advanced Magnetics, Cambridge, MA
Assay: Magnetically assisted avidin-biotin binding assay (competitive inhibition, balance readout)
Conditions: free biotin concentration 125 nanograms/milliliter (80 µl assayed); 12 milligrams at 0 nanograms/milliliter; Figure 6
Method: The following reagents and samples were used in a binding assay:
The magnetically-labeled reagent was a streptavidin-coated paramagnetic microparticle (Advanced Magnetics, Cambridge, MA; average one micron in diameter, with 5x10^8 particles per mg, supplied as a 5 mg/ml suspension).
Incubation was continued at 37° C for an additional 45 minutes. The wells were then emptied and washed with PBS using a wash bottle.
The magnetically-labeled reagent was first combined with the test sample, thereby forming a reaction mixture which was incubated for one hour at 37° C. […] The unbound magnetically-labeled reagent was removed from the reaction mixture by means of magnetic attraction.

T1 sequence (P22629 25-183): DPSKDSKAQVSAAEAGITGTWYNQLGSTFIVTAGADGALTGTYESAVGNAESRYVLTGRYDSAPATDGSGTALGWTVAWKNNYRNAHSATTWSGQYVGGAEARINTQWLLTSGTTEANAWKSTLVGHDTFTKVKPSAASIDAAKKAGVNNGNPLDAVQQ

O=C(O)CCCC[C@@H]1SC[C@@H]2NC(=O)N[C@@H]21 [biotin]
force change detected by the balance means: zero
